Reference: US20130197071A1, “PRODUCTION OF LIPOXYGENASE INHIBITORS VIA FUNGAL BIOSYNTHETIC PATHWAY” (UNIVERSITY OF SOUTHERN CALIFORNIA, priority 2012, published 2013)
Entries after “also recorded” stand apart in the source; their conditions may differ. Read-outs that look alike come from different tables or passages of the source.

Legend:
[1] = target: T1, soybean LOX-1 (Lipoxygenase-1, 15-Lipoxygenase) (Glycine max, UniProt P08170); assay: Soybean lipoxygenase-1 (LOX-1) inhibition assay, spectrophotometric at 234 nm, linoleic acid substrate; format: biochemical; conditions: for LOX-1 inhibition (result in words): screening for soybean LOX-1 inhibition
T1 construct: purchased Cayman Chemical #60712
T1 sequence (P08170 1-839): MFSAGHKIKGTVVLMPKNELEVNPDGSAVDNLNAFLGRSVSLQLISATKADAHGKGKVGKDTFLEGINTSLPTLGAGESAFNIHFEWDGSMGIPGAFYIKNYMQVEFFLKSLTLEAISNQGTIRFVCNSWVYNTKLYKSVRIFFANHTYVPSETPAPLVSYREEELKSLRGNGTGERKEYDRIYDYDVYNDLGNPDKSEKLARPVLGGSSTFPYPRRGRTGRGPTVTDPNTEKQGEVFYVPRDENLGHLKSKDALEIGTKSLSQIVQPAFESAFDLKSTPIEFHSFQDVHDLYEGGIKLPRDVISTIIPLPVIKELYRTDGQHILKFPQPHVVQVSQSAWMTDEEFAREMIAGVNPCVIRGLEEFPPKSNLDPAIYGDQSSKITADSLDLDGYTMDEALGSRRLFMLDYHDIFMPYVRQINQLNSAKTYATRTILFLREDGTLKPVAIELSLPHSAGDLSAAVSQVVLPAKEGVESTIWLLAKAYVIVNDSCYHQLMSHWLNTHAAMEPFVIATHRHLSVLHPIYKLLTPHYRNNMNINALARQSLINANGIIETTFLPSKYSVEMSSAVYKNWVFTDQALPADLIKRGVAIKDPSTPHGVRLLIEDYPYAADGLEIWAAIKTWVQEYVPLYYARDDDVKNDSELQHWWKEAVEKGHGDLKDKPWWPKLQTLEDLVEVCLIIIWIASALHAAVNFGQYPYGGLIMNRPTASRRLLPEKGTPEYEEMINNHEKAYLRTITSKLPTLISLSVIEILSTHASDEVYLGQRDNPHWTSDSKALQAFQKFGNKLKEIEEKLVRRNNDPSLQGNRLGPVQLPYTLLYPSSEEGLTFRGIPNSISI
Experimental: ^1H and ^13C NMR spectra were recorded on a Varian Mercury Plus 400 spectrometer. Chemical shifts are reported in ppm relative to CDCl3 (^1H, δ 7.26; ^13C, δ 77.0) or acetone-d6 (^1H, δ 2.05; ^13C, δ 30.0, 206.0). ^1H NMR data is reported as: chemical shift, multiplicity (s=singlet, d=doublet, t=triplet, q=quartet, m=multiplet), coupling constant, and integration. Infrared spectra were recorded on a JASCO FTIR-4100. Infrared frequencies are reported in reciprocal centimeters. High resolution electrospray ionization mass was obtained on an Agilent 6210 time of flight LC-MS. Reactions were monitored by analytical thin-layer chromatography on EMD silica gel-60^F254 plates. Flash chromatography was performed on EMD silica gel 60, 70-230 mesh. All reagents were used without further purification unless otherwise noted. Reagents were purchased from Sigma-Aldrich, and Alfa Aesar. Diethyl ether (anhydrous) and 1,2-dichloroethane (anhydrous) were used directly from the bottle. Water sensitive reactions were performed under a nitrogen atmosphere with oven-dried glassware. Kinetic experiments for lipoxygenase inhibition were recorded on a Shimadzu UV-2401PC at 26° C. Materials for the lipoxygenase assay such as linoleic acid, 15-Lipoxygenase (soybean PO, and (+)-sclerotiorin were purchased from Cayman Chemicals.
The enzyme assay was performed according to Axelrod et. al.^18 Each solution was prepared and measured at room temperature. Enzyme kinetics was measured on a Shimadzu UV-2401PC at a wavelength of 234 nm in a quartz cuvette (FIG. 6). For the assay, the linoleic acid substrate was prepared by mixing 20 μL linoleic acid (Cayman Chemical #760716) with 20 μL KOH (Cayman Chemical #760713) and 40 μL double distilled water. Lipoxygenase-1 (Cayman Chemical #60712) was diluted from original stock concentration to a concentration of 100 U/mL in the cuvette. The semisynthetic azaphilones were prepared as stock concentrations in dimethylsulfoxide (DMSO) from 20 μM to 10 mM; 54, was added to the assay mixture to give the desired final concentration of the inhibitor with 1% of DMSO in the assay.
The spectrophotometric assay is based on monitoring the reaction, catalyzed by LOX-1 to convert linoleic acid (L) to the hydroperoxide (LOOH), at 234 nm. […] The reaction is initiated when the non-heme iron of LOX-1 in the ferric state is reduced by the substrate L. While in the enzyme-substrate complex, L is oxidized and converted to the peroxide free radical (LOO.), and subsequently released from the enzyme as LOOH Inhibitors can interfere in the process in several different ways to prevent the generation of LOOH by the chelation of iron, removal of oxygen or prevention of free radical formation.
Prior to measurements, a sample with buffer was used as a blank. In a quartz cuvette, each sample was prepared with 482.54, 0.2 M borate buffer (at a pH of 9.0) mixed with 54, inhibitor and 54, substrate by pipetting the solution. The cuvette was placed in the spectrophotometer and measured for 120 seconds and then rapidly 7.54, lipoxygenase-1 was added and mixed to initiate the reaction. Measurements were recorded every 30 seconds for 7.5 minutes.
Inhibition of an enzyme at 50% can be experimentally measured by monitoring enzyme kinetics. A kinetic study generates a curve where the slope provides the initial velocity (Vo) of the enzyme. For each sample with different inhibitor concentrations the initial velocity was derived from a linear segment between […]. The absorbance was used directly and not converted into concentration units. […] The concentration of inhibitor at which 50% inhibition occurred (as measured by change in Vo) was reported as the IC50.

[2] = Solubility of compound 5 in aqueous culture media; format: physicochemical; conditions: liquid lactose minimal medium culture
Excerpt: The fungal strain used to over-produce compound 5 contains genetic alterations as described in Table 1. The native promoter of afoA, the gene that codes for the pathway-specific transcription activator of the asperfuranone pathway was replaced with the inducible alcohol dehydrogenase promoter, alcA. The afoD gene, that codes for the hydroxylase in the asperfuranone pathway, was deleted to enable the accumulation of intermediate, compound 5.^11 It should be noted that the afo cluster is silent under normal laboratory growing conditions. The wild type strain, thus, produced non-detectable compound 5 and asperfuranone (4).

[3] = target: T1, soybean LOX-1 (Lipoxygenase-1, 15-Lipoxygenase); conditions: literature report (ref. 5); cited from earlier work
[4] = soybean LOX-1, linoleic acid, 0.2 M borate buffer pH 9.0, 1% DMSO, 234 nm, read-out: Lipoxygenase-1 Inhibitory Activity IC50 (μM) ± s.d.

IC50 [1, 4] [µM] | Compound | further results
> 100 | CCOC(=O)C=C1C2=COC(/C=C/C(C)=C/[C@@H](C)CC)=CC2=CC(=O)C1(C)O (stereo partly drawn) [Compound 15] | –
> 100 | CCOC(=O)C=C1C2=COC(/C=C/C(C)=C/[C@@H](C)CC)=CC2=C(Br)C(=O)C1(C)O (stereo partly drawn) [Compound 16] | –
10.7 ± 6.6 | CC[C@H](C)/C=C(C)/C=C/C1=CC2=CC(=O)C(C)(O)C(=O)C2=CO1 (stereo partly drawn) [Compound 11] | –
3.2 ± 1.5 | CC[C@H](C)/C=C(C)/C=C/C1=CC2=C(Br)C(=O)C(C)(O)C(=O)C2=CO1 (stereo partly drawn) [Compound 13] | LOX-1 inhibition (result in words) [1]: highest lipoxgyenase-1 inhibition; also recorded: most effective
– | CC[C@H](C)/C=C(C)/C=C/C1=CC2=C(Cl)C(=O)C(C)(O)C(=O)C2=CO1 (stereo partly drawn) [Compound 12] | IC50 [1]: 7.9 ± 3.9 µM
> 100 | asperfuranone [Compound 4] | –
> 100 | CCOC(=O)C=C1C2=COC(/C=C/C(C)=C/[C@@H](C)CC)=CC2=C(I)C(=O)C1(C)O (stereo partly drawn) [Compound 17] | –
6.8 ± 4.5 | CC[C@H](C)/C=C(C)/C=C/C1=CC2=C(Br)C(=O)C(C)(OC(C)=O)C(=O)C2=CO1 (stereo partly drawn) [Compound 9] | –
19.6 ± 11.9 | CC[C@H](C)/C=C(C)/C=C/C1=CC2=C(I)C(=O)C(C)(O)C(=O)C2=CO1 (stereo partly drawn) [Compound 14] | –
17.4 ± 8.1 | CC[C@H](C)/C=C(C)/C=C/C1=CC2=C(I)C(=O)C(C)(OC(C)=O)C(=O)C2=CO1 (stereo partly drawn) [Compound 10] | –
97.2 ± 2 | CC[C@H](C)/C=C(C)/C=C/C(=O)Cc1cc(O)c(C)c(O)c1C=O (stereo in doubt) [Compound 5, 2,4-dihydroxy-6-(5,7-dimethyl-2-oxo-trans-3-trans-5-nonadienyl)-3-methylbenzaldehyde] | Solubility in aqueous media (in words) [2]: poorly dissolved in aqueous media

Compound | IC50 [1, 4] [µM] | further results
CC[C@H](C)/C=C(C)/C=C/C1=CC2=C(Cl)C(=O)C(C)(OC(C)=O)C(=O)C2=CO1 (stereo partly drawn) [Compound 8] | 2.3 ± 0.9 | –
CC[C@H](C)/C=C(C)/C=C/C1=CC2=C(Cl)C(=O)[C@](C)(OC(C)=O)C(=O)C2=CO1 [Compound 1, (+)-sclerotiorin, reference compound] | 7.8 ± 2.4 | LOX-1 inhibition of (+)-sclerotiorin according to a report [3]: potent LOX-1 inhibition
CC[C@H](C)/C=C(C)/C=C/C1=CC2=CC(=O)C(C)(OC(C)=O)C(=O)C2=CO1 (stereo partly drawn) [Compound 7] | 4.9 ± 3.3 | LOX-1 inhibition (result in words) [1]: highest lipoxgyenase-1 inhibition; also recorded: most effective
